Consider 4 compounds from patent US20140079632A1, “ACTIVITY-BASED PROBES FOR THE UROKINASE P[…]” (UNIVERSITEIT ANTWERPEN, priority 2011, published 2014).

Holding throughout (assay type): biochemical
Test [1] has as its target T1, uPA (Homo sapiens, UniProt P00749).
T1 construct: purchased Nodia
The test is described as follows: uPA inhibition: in vitro evaluation, IC50 with chromogenic substrate Biophen CS-61(44). The note with it: 15 min preincubation at 37° C.; Tris buffer pH 8.8; 250 μM substrate. The procedure: Enzymatic activity was measured at 37° C. in a Spectramax 340 (Molecular Devices) microtiter plate reader using the chromogenic substrate Biophen CS-61(44) (LpyroGlu-Gly L-Arg-p-NA.HCl), with a Km of 80 μM.
The substrate and human enzyme were obtained from Nodia. The reaction was monitored at 405 nm, and the initial rate was determined between 0 and 0.25 absorbance units in 20 min. The reaction mixture contained 250 μM substrate and approximately 1 mU of enzyme in 145 μL of buffer in a final volume of 200 μL. A 50 mM Tris buffer, pH 8.8, was used. From each inhibitor concentration, 5 μL was added, obtaining a final concentration from 0 to 250 μM in a total volume of 0.2 mL. Activity measurements were routinely performed in duplicate. […] IC50 values were obtained by fitting the data with the four-parameter logistics equation using Grafit 5.
where s=slope factor, v=rate, I0=inhibitor concentration, and range=the fitted uninhibited value minus the background. The equation assumes the y falls with increasing x.
(§1) Inhibitor stock solutions were prepared in DMSO and stored at −20° C. Because the compounds described in this paper completely inactivate uPA following pseudofirst-order kinetics, the IC50 value is inversely correlated with the second-order rate constant of inactivation. For a simple pseudofirst-order inactivation process, the activity after incubation with inhibitor (vi) varies with the inhibitor concentration (i), as described in the following equation: […]

Test [2] addresses T1, uPA. The test is described as follows: uPA inactivation kinetics from progress curves (kobs versus inhibitor concentration, kapp). The note with it: asterisked: compound showed a two-step mechanism, kapp calculated as k2/K1; 250 μM substrate; 37° C. The procedure:
as §1
where vo is the activity in absence of inhibitor, k is the second-order rate constant of inactivation, and t is the time. The inactivation rate constant was determined from the time course of inhibition.
The inhibitor was mixed with the substrate (250 μM final concentration), and the buffer solution with the enzyme was added at the time zero. The inhibitor concentrations were chosen to obtain total inhibition of the enzyme within 20 min. The progress curves show the absorbance of p-nitroanilide produced as a function of time. Initially, no inhibitor is bound to the enzyme, and the tangent to the progress curve (dA/dt) is proportional to the concentration of the free enzyme. The concentration of free enzyme decreases over time due to the kinetics of inhibitor binding, as described above. Progress curves were recorded in pseudofirst-order conditions ([I]0>>[E]0) and with less than 10% conversion of the substrate during the entire time course. In these conditions, dA/dt decreases exponentially with time. The progress curves were fitted with the integrated rate equation to yield a value for kobs, a pseudofirst-order rate constant
At=v0[1−e^−k^obs^t]/kobs+A0
where At=absorbance at time t, A0=absorbance at time zero, and v0=uninhibited initial rate.
The apparent second-order rate constant (kapp) was calculated from the slope of the linear part of the plot of kobs versus the inhibitor concentration ([I]0). In case of competition between the inhibitor and the substrate, kapp is smaller than the “real” second order rate constant k discussed above because a certain fraction of the enzyme is present as an enzyme-substrate complex. kapp depends on the substrate concentration used in the experiment, as described by Lambeir et al.^40 For most final compounds, the kobs versus [I]0 plot was not linear, but could be fitted with a hyperbolic function: kobs=k2[I]0/(K1+[I]0) (two step mechanism). Where K1 is the dissociation constant of the reversible enzyme-inhibitor complex and k2 is the first-order rate constant associated with irreversible modification of the enzyme. A kapp could be calculated as k2/K1.

Test [3] concerns the target T2, tPA (recombinant) (Homo sapiens, UniProt P00750).
T2 construct: purchased Nodia
The test is described as follows: Selectivity: tPA inhibition, substrate Biophen CS-05(88). The note with it: 15 min preincubation; Tris buffer pH 8.3; 1.25 mM substrate. On the procedure: (§2) The substrate and human enzyme were obtained from Nodia. The reaction was monitored at 405 nm, and the initial rate was determined between 0 and 0.25 absorbance units in 20 min. […] A 50 mM Tris buffer, pH 8.8, was used. From each inhibitor concentration, 5 μL was added, obtaining a final concentration from 0 to 250 μM in a total volume of 0.2 mL. Activity measurements were routinely performed in duplicate. […] IC50 values were obtained by fitting the data with the four-parameter logistics equation using Grafit 5.
(§3) The IC50 values for plasmin (from human plasma, Sigma), tPA (recombinant, Nodia), thrombin (from human plasma, Sigma), and FXa were determined in the same way as for uPA.
(§4) For tPA and thrombin, Tris buffer, pH 8.3, was used, for FXa, Tris buffer, pH 8.3, for plasmin, Tris buffer, pH 7.4, was used.

Test [4] has as its target T3, thrombin (from human plasma) (Homo sapiens, UniProt P00734).
T3 construct: thrombin (from human plasma, Sigma); purchased Sigma; host or cells: human plasma
Put plainly: Selectivity: thrombin inhibition, substrate Biophen CS-21(66). The note with it: 15 min preincubation; Tris buffer pH 8.3; 580 μM substrate. The procedure:
as §2, §3, §4

Test [5] has as its target T4, plasmin (from human plasma) (Homo sapiens, UniProt P00747).
T4 construct: purchased Sigma; host or cells: human plasma
Put plainly: Selectivity: plasmin inhibition, substrate Biophen CS-21(66). The note with it: 15 min preincubation; Tris buffer pH 7.4; 580 μM substrate. On the procedure: as §2, §3, §4

The target of test [6] is FXa (Homo sapiens, UniProt P00742). Put plainly: Selectivity: FXa inhibition, substrate Biophen CS-11(32). The note with it: at 250 (μM).
Sequence of FXa (P00742 235-488 limits assumed): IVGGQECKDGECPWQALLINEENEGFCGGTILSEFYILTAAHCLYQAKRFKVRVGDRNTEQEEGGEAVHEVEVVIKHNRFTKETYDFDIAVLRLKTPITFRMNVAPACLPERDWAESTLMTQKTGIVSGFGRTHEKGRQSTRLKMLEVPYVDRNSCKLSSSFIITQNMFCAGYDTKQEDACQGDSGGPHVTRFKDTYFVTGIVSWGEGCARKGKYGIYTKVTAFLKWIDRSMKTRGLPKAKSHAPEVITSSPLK
Sequence of FXa (P00742 41-179 partner limits assumed): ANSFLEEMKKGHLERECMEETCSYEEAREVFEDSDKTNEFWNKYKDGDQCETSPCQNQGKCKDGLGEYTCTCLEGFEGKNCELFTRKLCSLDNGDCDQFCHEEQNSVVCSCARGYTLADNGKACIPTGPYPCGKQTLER

T4 sequence (P00747 581-810 limits assumed): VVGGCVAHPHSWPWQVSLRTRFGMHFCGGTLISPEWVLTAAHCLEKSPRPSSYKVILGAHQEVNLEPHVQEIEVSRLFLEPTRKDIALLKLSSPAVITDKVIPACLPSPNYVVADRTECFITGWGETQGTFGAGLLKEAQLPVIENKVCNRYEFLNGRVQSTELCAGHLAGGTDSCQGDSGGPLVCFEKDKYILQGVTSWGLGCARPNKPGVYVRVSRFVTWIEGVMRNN
T4 sequence (P00747 97-580 partner limits assumed): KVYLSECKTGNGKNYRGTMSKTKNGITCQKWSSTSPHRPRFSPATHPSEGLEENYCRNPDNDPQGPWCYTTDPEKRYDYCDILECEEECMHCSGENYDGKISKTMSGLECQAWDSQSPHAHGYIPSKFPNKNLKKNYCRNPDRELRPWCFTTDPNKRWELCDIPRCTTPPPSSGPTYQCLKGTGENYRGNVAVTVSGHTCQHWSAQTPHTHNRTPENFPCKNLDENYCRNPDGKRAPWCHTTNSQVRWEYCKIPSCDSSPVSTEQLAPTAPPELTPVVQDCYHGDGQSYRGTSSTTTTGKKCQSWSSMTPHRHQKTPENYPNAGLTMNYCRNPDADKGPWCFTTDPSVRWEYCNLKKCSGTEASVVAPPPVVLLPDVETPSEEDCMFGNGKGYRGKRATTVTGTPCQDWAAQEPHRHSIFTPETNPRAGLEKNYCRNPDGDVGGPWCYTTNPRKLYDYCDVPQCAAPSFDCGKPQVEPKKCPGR
T2 sequence (P00750 36-562, species assumed): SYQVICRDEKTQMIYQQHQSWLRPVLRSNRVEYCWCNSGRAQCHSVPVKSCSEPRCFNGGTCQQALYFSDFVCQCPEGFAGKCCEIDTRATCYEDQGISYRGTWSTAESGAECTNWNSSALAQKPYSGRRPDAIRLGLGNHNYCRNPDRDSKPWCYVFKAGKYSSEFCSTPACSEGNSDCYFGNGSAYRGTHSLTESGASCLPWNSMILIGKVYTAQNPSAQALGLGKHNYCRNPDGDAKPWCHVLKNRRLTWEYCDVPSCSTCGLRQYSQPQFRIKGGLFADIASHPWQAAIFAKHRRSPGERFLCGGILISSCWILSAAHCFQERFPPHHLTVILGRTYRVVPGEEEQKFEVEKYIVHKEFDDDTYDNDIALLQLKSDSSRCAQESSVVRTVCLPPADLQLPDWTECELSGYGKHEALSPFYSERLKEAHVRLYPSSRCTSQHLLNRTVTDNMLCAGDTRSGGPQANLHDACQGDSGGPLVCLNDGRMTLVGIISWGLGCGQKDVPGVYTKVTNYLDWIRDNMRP

A word on the IC50: it is the concentration that inhibits the measured activity by half. Regarding `O=C(O)C(F)(F)F.[N-]=[N+]=NCCCCCCOC(=O)NC(Cc1ccc(NC(=N)N)cc1)P(=O)(Oc1ccccc1)Oc1ccccc1` (stereo not drawn) [Intermediate 59, 6-azidohexyl 1-(diphenoxyphosphoryl)-2-(4-guanidinophenyl)ethylcarbamate 2,2,2-trifluoroacetate], the IC50 in test [1] is 0.0096 ± 0.0019 µM; in test [3], 16.7 ± 1.7 µM; in test [4], 2.4 ± 0.2 µM; in test [5] it was 3.6 ± 0.3 µM. Moreover, in test [2], the “uPA: kapp” value was 14 × 10^3 ± 3 × 10^3 * M^−1 s^−1. In test [6], the “FXa % (I) @ 250” value is given as 61% @ 250.

Regarding `O=C(O)C(F)(F)F.[N-]=[N+]=NCCOCCOC(=O)NC(Cc1ccc(NC(=N)N)cc1)P(=O)(Oc1ccccc1)Oc1ccccc1` (stereo not drawn) [Intermediate 60, 2-(2-azidoethoxy)ethyl 1-(diphenoxyphosphoryl)-2-(4-guanidinophenyl)ethyl carbamate 2,2,2-trifluoroacetate], the 50% inhibitory concentration (IC50) is 0.0052 ± 0.001 µM in test [1], 56 ± 53 µM in test [3], 11.8 ± 0.6 µM in test [4] and 7.9 ± 0.3 µM in test [5]. Moreover, the “uPA: kapp” value in test [2] is 19 × 10^3 ± 8 × 10^3 * M^−1 s^−1. The “FXa % (I) @ 250” value in test [6] was 57% @ 250.

As for `O=C(O)C(F)(F)F.[N-]=[N+]=NCCOCCOCCOCCOC(=O)NC(Cc1ccc(NC(=N)N)cc1)P(=O)(Oc1ccccc1)Oc1ccccc1` (stereo not drawn) [Intermediate 62, 2-(2-(2-(2-azidoethoxy)ethoxy)ethoxy)ethyl 1-(diphenoxyphosphoryl)-2-(4-guanidinophenyl)ethylcarbamate 2,2,2-trifluoroacetate], the IC50 in test [1] came to 0.015 ± 0.002 µM; in test [3] it was 70 ± 11 µM; in test [4], 29 ± 5 µM; in test [5], 9 ± 0.7 µM. In addition, in test [2], the “uPA: kapp” value is listed as 9 × 10^3 ± 4 × 10^3 * M^−1 s^−1. Moreover, the “FXa % (I) @ 250” value in test [6] was 48% @ 250.

For `C#CCCCOC(=O)NC(Cc1ccc(NC(=N)N)cc1)P(=O)(Oc1ccc(NC(C)=O)cc1)Oc1ccc(NC(C)=O)cc1` (stereo not drawn) [Intermediate 63, pent-4-ynyl 1-(bis(4-acetamidophenoxy)phosphoryl)-2-(4-guanidinophenyl)ethyl carbamate 2,2,2-trifluoroacetate], the IC50 in test [1] turned out to be 0.0035 ± 0.0017 µM; in test [3], 24 ± 4 µM; in test [4] it was 2.1 ± 0.2 µM; in test [5] it was 1.4 ± 0.1 µM. The “uPA: kapp” value in test [2] is on record as 40 × 10^3 ± 8 × 10^3 * M^−1 s^−1. Further, the “FXa % (I) @ 250” value in test [6] came to 70% @ 250.
